{"source": "patent US20090264421A1", "about": "(priority 2007, published 2009)", "key": {"[1]": {"system": "freshly collected sorted patient CD138+ myeloma cells", "details": "ex vivo, 24 hours, trypan blue exclusion", "experimental": "FIG. 3. […] Survival indicated in A-E was assessed using a trypan blue exclusion assay, counting viable cells using a hemocytometer after 24 hour exposure to the indicated drugs and drug concentrations.\nPatient bone marrow leukocytes were divided into myeloma (CD138+) and non-myeloma/normal leukocyte (CD138−) fractions employing sorting using magnetic bead technology in kit form (MACS CD138 microbeads, Miltenyi Biotech, Auburn, Calif.). Sorted cells were plated in a 96-well tissue culture plate at a concentration of 5×10^5 cells and dosed with indicated drug concentrations for 24 hours. Survival was assessed using a trypan blue exclusion assay."}, "[2]": {"system": "RPMI 8226 myeloma xenografts", "experiment": "RPMI 8226 SCID mouse flank xenograft model", "format": "in vivo", "details": "0.25 mg/kg intraperitoneally twice weekly, three weeks of treatment of established tumors, p<0.05", "experimental": "FIG. 4. Patient myeloma cells treated in mixed culture are selectively killed by chaetocin in comparison to other bone marrow leukocytes, and chaetocin has in vivo anti-myeloma activity. A-C. Unsorted bone marrow leukocytes obtained from 4 patients with multiple myeloma were treated with 100 nM Chaetocin or diluent for 24 hours and then subjected to FACS analyses to examine induced cell death in various leukocyte subpopulations. […] Results from 4 unsorted patient marrow leukocyte samples are indicated in C, indicating selective killing of myeloma cells by chaetocin in mixed culture in all 4 examined patient samples. In A-C, surviving cells were defined as those with low annexin and 7-AAD staining. D. Chaetocin has in vivo anti-myeloma activity in the RRMI 8226 SCID flank xenograft mouse model. […]\nIn vivo experiments: The in vivo effects of chaetocin were preliminarily explored at Southern Research Institute with assistance from Dr. William Waud (Birmingham, Ala.) in SCID mice using subcutaneously flank-implanted RPMI 8226 myeloma xenografts using a twice-weekly intraperitoneal administration schedule, with chaetocin formulated in 25% DMSO and 75% PEG400. Tumor weights were calculated from volumes derived from direct tumor measurements. […]"}, "[3]": {"experiment": "Tolerability of IP chaetocin in mice", "format": "in vivo, mouse", "details": "0.6 mg/kg and 0.25 mg/kg IP twice weekly for two weeks", "experimental": "Subsequent in vivo work in mice utilized the following formulation: 0.06 mg/mL chaetocin in 20% PEG400 and 79.14% […] NaCl with 0.86% DMSO as a cosolvent. This system retains in vitro activity in cell culture models."}, "TrxR1 [4]": {"molecular_target": "T1, TrxR1 (Rattus norvegicus, UniProt O89049)", "T1 sequence (O89049 1-499)": "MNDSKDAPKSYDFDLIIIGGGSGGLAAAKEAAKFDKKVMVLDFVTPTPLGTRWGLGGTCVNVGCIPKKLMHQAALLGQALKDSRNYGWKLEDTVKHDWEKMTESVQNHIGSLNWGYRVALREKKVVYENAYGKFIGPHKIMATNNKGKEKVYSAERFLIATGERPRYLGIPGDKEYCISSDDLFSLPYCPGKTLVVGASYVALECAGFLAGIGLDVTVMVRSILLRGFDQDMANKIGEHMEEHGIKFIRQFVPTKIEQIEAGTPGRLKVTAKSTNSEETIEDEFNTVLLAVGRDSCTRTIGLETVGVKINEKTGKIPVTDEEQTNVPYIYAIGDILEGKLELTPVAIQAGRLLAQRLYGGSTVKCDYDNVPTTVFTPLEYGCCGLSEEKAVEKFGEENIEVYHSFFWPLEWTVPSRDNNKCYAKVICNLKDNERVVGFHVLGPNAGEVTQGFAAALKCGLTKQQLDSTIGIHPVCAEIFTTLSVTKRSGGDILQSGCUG", "details": "substrate of TrxR1, NADPH oxidation", "from_the_text": "Reagents: Chaetocin, β-Nicotinamide adenine dinucleotide 2′-phosphate reduced tetrasodium salt hydrate (NADPH), rat liver thioredoxin reductase, 5,5′-dithiobis(2-nitrobenzoic acid) (DTNB), oxidized glutathione (GSSG), bovine insulin, gliotoxin, thioredoxin reductase assay kit, anti-actin antibody and Celytic lysis reagent were purchased from Sigma (St. Louis, Mo.); yeast glutathione reductase and Complete Protease Inhibitor Tablets from Roche (Indianapolis, Ind.); BCA protein from Pierce (Rockford, Ill.); oxidized E. coli thioredoxin and dithiothreitol (DTT) from Promega (Madison, Wis.); verruculogen from Calbiochem (San Diego, Calif.); 4-acetamido-4′-maleimidylstilbene-2,2′-disulfonic acid (AMS) and Lipofectamine-Plus from Invitrogen (Carlsbad, Calif.); chaetomin from Alexis Biochemicals (San Diego, Calif.); and anti-thioredoxin antibody from Cell Signaling (Beverly, Mass.). HeLa cells were obtained from ATCC.\nSteady-state kinetics: The 100 μL reaction consisted of 100 mM potassium phosphate (pH 7.0), 10 mM EDTA, 0.0004 U/μL thioredoxin reductase and chaetocin or other compounds as indicated. The assay was carried out in a 96-well quartz plate and the oxidation of NADPH was measured as a change in absorption at 340 nm. The initial velocities of the reaction were calculated from the decrease in the absorbance between 0 and 5 min (slope), and on a pathlength of 0.3 cm and NADPH ε=6.22 mmol^−1*cm^−1*L. The velocity versus concentration data were then analyzed using SigmaPlot's Enzyme Kinetics 1.3 program (Systat Software, San Jose, Calif.)."}, "normal plasma cells": {"system": "normal plasma cells", "experiment": "Survival of normal plasma cells and matched normal leucocytes, trypan blue exclusion", "format": "cell-based, human", "details": "24 h exposure", "experimental": "A and B. Effects of chaetocin on survival of MGUS plasma cells and matched patient normal leucocytes from two patients (assessed by trypan blue exclusion assay, 24 h chaetocin exposures). C and D. Effects of chaetocin on survival of normal plasma cells and matched patient normal leucocytes from two patients (assessed by trypan blue exclusion assay, 24 h chaetocin exposures)."}, "TrxR1 [5]": {"molecular_target": "T1, TrxR1", "experiment": "Thioredoxin reductase activity assay (DTNB method)", "format": "biochemical", "parameters": "rat liver thioredoxin reductase; purchased Sigma (St. Louis, Mo.)", "details": "cell-free; read-out: IC50, TrxR1-initiated turnover of DTNB", "experimental": "HeLa cells were obtained from ATCC.\nFinal concentrations were 0.0005 U/μL of enzyme and 0.24 mM NADPH in the presence of chaetocin as indicated in a 100 μL reaction. The reaction was started by the addition of DTNB (3 mM) and the change in absorbance at 405 nm was monitored in a plate reader. Activity was calculated as the increase in absorbance between 2 and 5 min after DTNB addition."}}}
{"molecule": "CN1C(=O)[C@@]23C[C@]4([C@]56C[C@@]78SS[C@@](CO)(C(=O)N7[C@H]5Nc5ccccc56)N(C)C8=O)c5ccccc5N[C@@H]4N2C(=O)[C@]1(CO)SS3", "note": "[chaetocin]", "values": [{"measurement": "effect on matched CD138- normal bone marrow leukocytes", "setting": "[1]", "result": "largely sparing"}, {"measurement": "T/C values", "setting": "[2]", "result": "50-60%"}, {"measurement": "GI toxicity", "setting": "[3]", "result": "some GI toxicity was noted"}, {"measurement": "tolerability", "setting": "[3]", "result": "tolerated"}, {"measurement": "Km", "setting": "TrxR1 [4]", "result": "4.6 ± 0.6", "unit": "µM"}, {"measurement": "effect on granulocytes and other leukocytes", "setting": "normal plasma cells", "result": "largely sparing granulocytes and other leukocytes"}, {"measurement": "IC50", "setting": "TrxR1 [5]", "result": "~4", "unit": "µM"}]}
